Some results are limits rather than exact numbers.

The first series deals with T1, rat follicle stimulating hormone receptor (rFSHR) (Rattus norvegicus, UniProt P20395).
T1 construct: expressed in transfected cells
T1 sequence (P20395 18-692): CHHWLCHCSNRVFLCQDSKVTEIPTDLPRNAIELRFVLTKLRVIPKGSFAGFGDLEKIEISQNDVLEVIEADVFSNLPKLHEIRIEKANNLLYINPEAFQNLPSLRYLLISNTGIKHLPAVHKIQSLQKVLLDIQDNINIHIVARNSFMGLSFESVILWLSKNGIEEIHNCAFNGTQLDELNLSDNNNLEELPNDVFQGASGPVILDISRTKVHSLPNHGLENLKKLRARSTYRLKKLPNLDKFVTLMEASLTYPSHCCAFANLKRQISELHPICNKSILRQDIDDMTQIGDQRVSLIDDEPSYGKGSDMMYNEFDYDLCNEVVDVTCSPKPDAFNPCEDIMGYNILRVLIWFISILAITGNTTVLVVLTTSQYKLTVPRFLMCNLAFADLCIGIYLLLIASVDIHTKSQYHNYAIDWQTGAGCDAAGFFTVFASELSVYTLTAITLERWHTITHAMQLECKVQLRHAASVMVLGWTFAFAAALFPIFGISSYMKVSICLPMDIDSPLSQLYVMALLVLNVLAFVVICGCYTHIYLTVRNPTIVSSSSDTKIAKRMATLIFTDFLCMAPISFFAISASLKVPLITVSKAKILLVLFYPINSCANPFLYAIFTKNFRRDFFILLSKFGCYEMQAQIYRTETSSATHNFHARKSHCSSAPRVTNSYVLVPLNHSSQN
Nature of the series: Intracellular cAMP measurement (HTRF) assay, antagonism of EC70 of hFSH. Format: cell-based. As to conditions: HEK293 cells expressing rFSHR, 1 ng/ml hFSH (EC70), read-out: Class (IC50 to antagonise an EC70 of FSH receptors agonist such as hFSH). The source says:
Intracellular cAMP Measurement Assay
The Intracellular cAMP measurement assay is a functional cell-based assay used to study GPCR function. This method relies on a Time-Resolved Fluorescence (HTRF) assay to measure the cAMP accumulation upon receptor-mediated Gs protein activation in cells expressing recombinant GPCR or in cells from native tissues. In brief, this method is a competitive immunoassay between native cAMP produced by cells and the cAMP labeled with a fluorescent tag. The endogenously produced cAMP competes with exogenous added d2-labelled cAMP for the cAMP binding site on a Eu3+ cryptate labelled anti-cAMP antibody. The d2-labelled cAMP and the Eu^3+ labelled antibody produces a basal fluroresence via HTRF and therefore an intracellular increase in unlabelled cAMP is detected as decrease in this signal. cAMP is one of the most important intracellular mediators. Its concentration in cells can be increased upon binding of many hormones to their receptors. The most studied pathway consists in the release of α-subunit GTP-binding proteins following ligand-receptor interaction, which in turn activates or inhibits the ATP/cAMP conversion function of adenylate cyclase enzyme. cAMP is then involved in many complex regulatory processes such as protein kinase activation or ion channel gating. This method is widely used to study receptor activation of G protein in cells over-expressing GPCRs or in native cells, including FSH receptors expressing cells (Gabriel et al., Assay Drug Dev. Technol., 1, 291-303, 2003).
Transfection and cell culture: The cDNA encoding the rat follicle stimulating hormone receptor (rFSHR), (accession number NM_199237, NCBI Nucleotide database browser) was subcloned into an expression vector containing also the hygromycin resistance gene. Transfection of this vector into HEK293 cells with PolyFect reagent (Qiagen) according to supplier's protocol, and hygromycin treatment allowed selection of antibiotic resistant cells which had integrated stably one or more copies of the plasmid. Positive cellular clones expressing rFSHR were identified in a functional assay measuring cAMP production in cells following stimulation by addition of purified human follicle stimulating hormone (hFSH).
HTRF cAMP assay: On the day of the experiment, cells were detached from the Petri dish and distributed in a low volume, black-walled 384-well plate at a density of 5,000 cells/well in an assay buffer containing 1 mM IBMX to prevent cAMP degradation by cytoplasmic phosphodiesterases. The determination of the cAMP accumulation was performed using an HTRF assay (Trinquet et al., Anal. Biochem., 358, 126-135, 2006). Briefly, cells were incubated for 3 min in the presence of increasing concentrations of negative allosteric modulators (from 1 nM to 60 μM) and then 30 min in the presence of 1 ng/ml of hFSH, an agonist of rat FSH receptor, that has been determined in previous experiments to correspond to the EC70, a concentration that gives 70% of the maximal response of the agonist, and is in accordance with published data (Fox et al., Mol. Endocrin., 15, 378-389, 2001). […] Cells were then lysed by adding the HTRF assay components, the europium cryptate-labeled anti-cAMP antibody, and the XL665-labeled cAMP analog, previously diluted in a HEPES buffer (50 mM, pH 7.0) containing 0.8 M potassium fluoride, 0.2% (w/v) BSA, and 1% (v/v) Triton X-100, a percentage of detergent that ensure complete cell lysis. Assay was then incubated for 1 hr at room temperature, and HTRF signal was measured after excitation at 337 nm, and dual emission at 620 and 665 nm, using a RubyStar fluorimeter (BMG Labtechnologies). Moreover, the fluorescence ratio of an appropriate range of known concentrations of cAMP standards was also included on each assay plate to produce a standard cAMP curve. […]
Take `CCc1cc(NC(=O)c2ccc(OC)c(OC)c2)ccc1C(C)(C)CNC(=O)c1cnc2[nH]cnc2c1` [Example 198, 3H-Imidazo[4,5-b]pyridine-6-carboxylic acid {2-[4-(3,4-dimethoxy-benzoylamino)-2-ethyl-phenyl]-2-methyl-propyl}-amide]: the IC50 is under 150 nM.

Regarding `COc1ccc(C(=O)Nc2ccc(C(C)(C)CCNC(=O)c3cnc4[nH]cnc4c3)cc2)cc1OC` [Example 199, 3H-Imidazo[4,5-b]pyridine-6-carboxylic acid {3-[4-(3,4-dimethoxy-benzoylamino)-phenyl]-3-methyl-butyl}-amide], the IC50 is 150 to 400 nM.

Take `COc1ccc(C(=O)Nc2ccc(C(C)(C)CNC(=O)c3cnc4[nH]ccc4c3)cc2)cc1OC` [Example 202]: the IC50 was under 150 nM.

Turning to `COc1ccc(C(=O)Nc2cccc(C(C)(C)CNC(=O)c3cnc4ccccn34)c2)cc1OC` [Example 203, Imidazo[1,2-a]pyridine-3-carboxylic acid {2-[3-(3,4-dimethoxy-benzoylamino)-phenyl]-2-methyl-propyl}-amide], the IC50 lay in the range of 150 to 400 nM.

In the case of `COc1ccc(C(=O)Nc2ccc(C(C)(C)C#N)c(N3CCOCC3)c2)cc1OC` [Example 204, N-[4-(Cyano-dimethyl-methyl)-3-morpholin-4-yl-phenyl]-3,4-dimethoxy-benzamide], the IC50 is at least 1000 nM.

For `COc1ccc(C(=O)Nc2ccc(C(C)(C)C#N)c(-c3cnn(C)c3)c2)cc1OC` [Example 205, N-[4-(Cyano-dimethyl-methyl)-3-(1-methyl-1H-pyrazol-4-yl)-phenyl]-3,4-dimethoxy-benzamide], the IC50 is 400 to 1000 nM.

As to `COc1ccc(C(=O)Nc2ccc(C(C)(C)C#N)c(-c3cccs3)c2)cc1OC` [Example 206, N-[4-(Cyano-dimethyl-methyl)-3-thiophen-2-yl-phenyl]-3,4-dimethoxy-benzamide], the IC50 was under 150 nM.

Take `COc1ccc(C(=O)Nc2ccc(C(C)(C)CNC(=O)c3ccc4[nH]cnc4c3)cc2)cc1OC` [Example 207]: the IC50 lay in the range of 150 to 400 nM.

Consider `COc1ccc(C(=O)Nc2ccc(C(C)(C)CNC(=O)c3ccc4[nH]c(C)nc4c3)cc2)cc1OC` [Example 208], for which the IC50 was in the range of 400 to 1000 nM.

For the compound `COc1ccc(C(=O)Nc2ccc(C(C)(C)CNC(=O)c3ccc4c(c3)nc(C)n4C)cc2)cc1OC` [Example 209], the IC50 was at least 1000 nM.

Turning to `COc1ccc(C(=O)Nc2ccc(C(C)(C)CNC(=O)c3ccc4c(c3)n(C)c(=O)n4C)cc2)cc1OC` [Example 210], the IC50 is 400 to 1000 nM.

Take `COc1ccc(C(=O)Nc2ccc(C(C)(C)CNC(=O)c3cnc4ccc(F)cn34)cc2)cc1OC` [Example 211]: the IC50 was under 150 nM.

For the compound `COc1ccc(C(=O)Nc2ccc(C(C)(CO)CNC(=O)c3cnc4ccccn34)cc2)cc1OC` (stereo not shown) [Example 212, Imidazo[1,2-a]pyridine-3-carboxylic acid {2-[4-(3,4-dimethoxy-benzoylamino)-phenyl]-3-hydroxy-2-methyl-propyl}-amide], the half-inhibitory concentration (IC50) is at least 1000 nM.

On to `COc1ccc(C(=O)Nc2ccc(C(C)(C)CNC(=O)c3nc4ccncc4[nH]3)cc2)cc1OC` [Example 214], for which the IC50 fell in the range of 150 to 400 nM.

As to `COc1ccc(C(=O)Nc2ccc(C(C)(C)CNC(=O)c3c[nH]c4cnccc34)cc2)cc1OC` [Example 215], the half-maximal inhibitory concentration (IC50) fell in the range of 400 to 1000 nM.

In the case of `COc1ccc(C(=O)Nc2ccc(C(C)(C)CNC(=O)c3c[nH]c4ncc(F)cc34)cc2)cc1OC` [Example 216], the IC50 was 150 to 400 nM.

With `COc1ccc(C(=O)Nc2ccc(C(C)(C)CCNC(C)=O)c(-c3cccnc3)c2)cc1OC` [Example 221, N-(4-(4-acetamido-2-methylbutan-2-yl)-3-(pyridin-3-yl)-phenyl)-3,4-dimethoxybenzamide], the IC50 lay in the range of 400 to 1000 nM.

Test system in a further series: not given
Test: not given
Details: not given
`COc1ccc(C(=O)Nc2ccc(C(C)(C)C#N)cc2)cc1OC` [Example 1, N-[4-(Cyano-dimethyl-methyl)-phenyl]-3,4-dimethoxy-benzamide] displayed a melting point of 139 to 141 °C.

Turning to `COc1ccc(C(=O)Nc2ccc(C3(C#N)CC3)cc2)cc1OC` [Example 2, N-[4-(1-Cyano-cyclopropyl)-phenyl]-3,4-dimethoxy-benzamide], the melting point fell in the range of 204 to 207 °C.

Compound `N#CC1(c2ccc(NC(=O)c3ccc4c(c3)OCCO4)cc2)CCCC1` [Example 3, 2,3-Dihydro-benzo[1,4]dioxin-6-carboxylic acid [4-(1-cyano-cyclopentyl)-phenyl]-amide] displayed a melting point of 164 to 167 °C.

`COc1ccc(C(=O)Nc2cccc(C3(C#N)CCCC3)c2)cc1OC` [Example 14, N-[3-(1-Cyano-cyclopentyl)-phenyl]-3,4-dimethoxy-benzamide] showed a melting point of 59 to 61 °C.

The compound `COc1ccc(C(=O)Nc2ccc(C(C)(C)C(N)=O)cc2)cc1OC` [Example 21, N-[4-(1-Carbamoyl-1-methyl-ethyl)-phenyl]-3,4-dimethoxy-benzamide] came in with a melting point of 193 to 195 °C.

Regarding `COc1ccc(C(=O)Nc2ccc(C3(CNC(=O)C(C)(C)C)CCCC3)cc2)cc1OC` [Example 23, N-(4-{1-[(2,2-Dimethyl-propionylamino)-methyl]-cyclopentyl}-phenyl)-3,4-dimethoxy-benzamide], the melting point is 165 to 167 °C.

Take `COc1ccc(C(=O)Nc2ccc(C(C)(C)CNC(C)=O)cc2)cc1OC` [Example 26, N-[4-(2-Acetylamino-1,1-dimethyl-ethyl)-phenyl]-3,4-dimethoxy-benzamide]: the melting point lay in the range of 195 to 197 °C.

Compound `COc1ccc(C(=O)Nc2ccc(C3(CNC(=O)c4cscn4)CCCC3)cc2)cc1OC` [Example 29, Thiazole-4-carboxylic acid {1-[4-(3,4-dimethoxy-benzoylamino)-phenyl]-cyclopentylmethyl}-amide] registered a melting point of 101 to 104 °C.

`COC(=O)NCC(C)(C)c1ccc(NC(=O)c2ccc(OC)c(OC)c2)cc1` [Example 52, {2-[4-(3,4-Dimethoxy-benzoylamino)-phenyl]-2-methyl-propyl}-carbamic acid methyl ester]: the melting point is 67 to 69 °C.

As to `COc1ccc(C(=O)Nc2ccc(C(C)(C)c3noc(COc4ccccc4)n3)cc2)cc1OC` [Example 53, 3,4-Dimethoxy-N-{4-[1-methyl-1-(5-phenoxymethyl-[1,2,4]oxadiazol-3-yl)-ethyl]-phenyl}-benzamide], the melting point is 165 to 167 °C.

`COc1ccc(C(=O)Nc2ccc(C3(CNC(C)=O)CC3)cc2)cc1OC` [Example 54, N-{4-[1-(Acetylamino-methyl)-cyclopropyl]-phenyl}-3,4-dimethoxy-benzamide] had a melting point of 204 to 206 °C.

One may read the IC50 as the concentration at which inhibition is half-maximal. For orientation: melting point means the temperature of the solid-liquid transition.
